Experimental data published in PubChem BioAssay (NCI).
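Exposure lasted 48 hours, with cells grown in 96-well plates and compounds tested at five concentrations. Here, GI50 denotes the concentration required for 50% inhibition of growth. Definition used: TGI = concentration required for complete inhibition of growth.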 Active and inactive are the calls of the source. Cut-off read from the data, not from the text of the source: active = GI50 below about 0.43 µM; inactive = the rest.

Legend:
Assay in all cases: NCI-60 cell line screen, 48 h
DU-145 prostate = test system: DU-145 prostate
HS 578T breast = test system: HS 578T breast
OVCAR-8 ovarian = test system: OVCAR-8 ovarian
UACC-257 melanoma = test system: UACC-257 melanoma
786-0 renal = test system: 786-0 renal
A498 renal = test system: A498 renal
ACHN renal = test system: ACHN renal
CAKI-1 renal = test system: CAKI-1 renal
CCRF-CEM leukemia = test system: CCRF-CEM leukemia
EKVX NSCLC = test system: EKVX NSCLC
HCT-15 colon = test system: HCT-15 colon
HL-60(TB) leukemia = test system: HL-60(TB) leukemia
HOP-62 NSCLC = test system: HOP-62 NSCLC
HOP-92 NSCLC = test system: HOP-92 NSCLC
HT29 colon = test system: HT29 colon
M14 melanoma = test system: M14 melanoma
MALME-3M melanoma = test system: MALME-3M melanoma
MCF7 breast = test system: MCF7 breast
MDA-MB-231 breast = test system: MDA-MB-231 breast
MDA-MB-435 = test system: MDA-MB-435
MOLT-4 leukemia = test system: MOLT-4 leukemia
NCI-H226 lung = test system: NCI-H226 lung
NCI-H23 lung = test system: NCI-H23 lung
NCI-H522 lung = test system: NCI-H522 lung
NCI/ADR-RES ovarian = test system: NCI/ADR-RES ovarian
OVCAR-4 ovarian = test system: OVCAR-4 ovarian
OVCAR-5 ovarian = test system: OVCAR-5 ovarian
PC-3 prostate = test system: PC-3 prostate
RXF 393 renal = test system: RXF 393 renal
SF-268 CNS = test system: SF-268 CNS
SF-295 CNS = test system: SF-295 CNS
SF-539 CNS = test system: SF-539 CNS
SK-MEL-28 melanoma = test system: SK-MEL-28 melanoma
SK-OV-3 ovarian = test system: SK-OV-3 ovarian
SN12C renal = test system: SN12C renal
SNB-19 CNS = test system: SNB-19 CNS
SNB-75 CNS = test system: SNB-75 CNS
SW-620 colon = test system: SW-620 colon
TK-10 renal = test system: TK-10 renal
U251 CNS = test system: U251 CNS
UACC-62 melanoma = test system: UACC-62 melanoma
UO-31 renal = test system: UO-31 renal
A549 NSCLC = test system: A549 NSCLC
BT-549 breast = test system: BT-549 breast
COLO 205 colon = test system: COLO 205 colon
HCC-2998 colon = test system: HCC-2998 colon
HCT-116 colon = test system: HCT-116 colon
IGROV1 ovarian = test system: IGROV1 ovarian
KM12 colon = test system: KM12 colon
LOX IMVI melanoma = test system: LOX IMVI melanoma
NCI-H460 lung = test system: NCI-H460 lung
OVCAR-3 ovarian = test system: OVCAR-3 ovarian
RPMI-8226 leukemia = test system: RPMI-8226 leukemia
SK-MEL-2 melanoma = test system: SK-MEL-2 melanoma
SK-MEL-5 melanoma = test system: SK-MEL-5 melanoma
T-47D breast = test system: T-47D breast

For N=C(N)c1ccc(-c2ccc(-c3cncc4ccccc34)s2)s1, the GI50 (DU-145 prostate) was 1.55 µM, the TGI (DU-145 prostate) was 3 µM and the GI50 (HS 578T breast) was 2.22 µM. For the same compound, the TGI (HS 578T breast) was 4.75 µM, the GI50 (OVCAR-8 ovarian) was 1.83 µM and the TGI (OVCAR-8 ovarian) was 4.4 µM. For the same compound, the GI50 (UACC-257 melanoma) was 2.47 µM and the TGI (UACC-257 melanoma) was 5.23 µM.
O=P(O)(O)CN1CCNCCN(CP(=O)(O)O)CCN(CP(=O)(O)O)CCNCC1 was tested, and the outcome (786-0 renal) was “inactive”, the outcome (A498 renal) was “inactive” and the outcome (ACHN renal) was “inactive”. The TGI (CAKI-1 renal) was 86100 µM, the outcome (CCRF-CEM leukemia) was “inactive” and the outcome (DU-145 prostate) was “inactive”. The outcome (EKVX NSCLC) was “inactive”, the outcome (HCT-15 colon) was “inactive” and the GI50 (HL-60(TB) leukemia) was 48900 µM. The TGI (HL-60(TB) leukemia) was 55.8 µM, the outcome (HOP-62 NSCLC) was “inactive” and the outcome (HOP-92 NSCLC) was “inactive”. For the same compound, the outcome (HS 578T breast) was “inactive”, the GI50 (HT29 colon) was 49000 µM and the outcome (M14 melanoma) was “inactive”. For the same compound, the TGI (MALME-3M melanoma) was 44.1 µM, the outcome (MALME-3M melanoma) was “inactive” and the GI50 (MCF7 breast) was 99900 µM. For the same compound, the outcome (MDA-MB-231 breast) was “inactive”, the outcome (MDA-MB-435) was “inactive” and the outcome (MOLT-4 leukemia) was “inactive”. For the same compound, the outcome (NCI-H226 lung) was “inactive”, the outcome (NCI-H23 lung) was “inactive” and the outcome (NCI-H522 lung) was “inactive”. For the same compound, the outcome (NCI/ADR-RES ovarian) was “inactive”, the outcome (OVCAR-4 ovarian) was “inactive” and the outcome (OVCAR-5 ovarian) was “inactive”. For the same compound, the outcome (PC-3 prostate) was “inactive”, the outcome (RXF 393 renal) was “inactive” and the outcome (SF-268 CNS) was “inactive”. For the same compound, the outcome (SF-295 CNS) was “inactive”, the outcome (SF-539 CNS) was “inactive” and the outcome (SK-MEL-28 melanoma) was “inactive”. For the same compound, the outcome (SK-OV-3 ovarian) was “inactive”, the outcome (SN12C renal) was “inactive” and the outcome (SNB-19 CNS) was “inactive”. The outcome (SNB-75 CNS) was “inactive”, the outcome (SW-620 colon) was “inactive” and the outcome (TK-10 renal) was “inactive”. For the same compound, the outcome (U251 CNS) was “inactive”, the outcome (UACC-257 melanoma) was “inactive” and the outcome (UACC-62 melanoma) was “inactive”. The outcome (UO-31 renal) was “inactive”.
Work on COc1cc(C(=O)O/N=C(\N)Cc2cccc3ccccc23)cc(OC)c1OC yielded a GI50 (786-0 renal) of 13.5 µM, a TGI (786-0 renal) of 26.7 µM and a GI50 (A498 renal) of 5.79 µM. The TGI (A498 renal) was 60.7 µM, the GI50 (A549 NSCLC) was 7.67 µM and the TGI (A549 NSCLC) was 23.8 µM. For the same compound, the GI50 (ACHN renal) was 7.11 µM, the TGI (ACHN renal) was 20.3 µM and the GI50 (BT-549 breast) was 14.6 µM. It also gave a TGI (BT-549 breast) of 29.7 µM, a GI50 (CAKI-1 renal) of 5.91 µM and a TGI (CAKI-1 renal) of 19.5 µM. The GI50 (CCRF-CEM leukemia) was 3.62 µM, the TGI (CCRF-CEM leukemia) was 23.3 µM and the GI50 (COLO 205 colon) was 12.2 µM. It also gave a TGI (COLO 205 colon) of 28.1 µM, a GI50 (DU-145 prostate) of 11.4 µM and a TGI (DU-145 prostate) of 23.7 µM. For the same compound, the GI50 (HCC-2998 colon) was 17.2 µM, the TGI (HCC-2998 colon) was 34.3 µM and the GI50 (HCT-116 colon) was 3.13 µM. It also gave a TGI (HCT-116 colon) of 13 µM, a GI50 (HCT-15 colon) of 6.41 µM and a TGI (HCT-15 colon) of 21.4 µM. For the same compound, the GI50 (HL-60(TB) leukemia) was 5.35 µM, the TGI (HL-60(TB) leukemia) was 36.5 µM and the GI50 (HOP-62 NSCLC) was 4.42 µM. For the same compound, the TGI (HOP-62 NSCLC) was 18.7 µM, the GI50 (HOP-92 NSCLC) was 4.59 µM and the TGI (HOP-92 NSCLC) was 17 µM. The GI50 (HS 578T breast) was 6.64 µM, the TGI (HS 578T breast) was 41.4 µM and the GI50 (HT29 colon) was 15.7 µM. The TGI (HT29 colon) was 38.3 µM, the GI50 (IGROV1 ovarian) was 3.61 µM and the TGI (IGROV1 ovarian) was 12.1 µM. For the same compound, the GI50 (KM12 colon) was 9.12 µM, the TGI (KM12 colon) was 22.1 µM and the GI50 (LOX IMVI melanoma) was 3.41 µM. The TGI (LOX IMVI melanoma) was 16.9 µM, the GI50 (MALME-3M melanoma) was 8.4 µM and the TGI (MALME-3M melanoma) was 21.9 µM. It also gave a GI50 (MCF7 breast) of 2.57 µM, a TGI (MCF7 breast) of 8.81 µM and a GI50 (MDA-MB-231 breast) of 4.12 µM. The TGI (MDA-MB-231 breast) was 18 µM, the GI50 (MDA-MB-435) was 2.4 µM and the TGI (MDA-MB-435) was 6.42 µM. The GI50 (MOLT-4 leukemia) was 4.53 µM, the TGI (MOLT-4 leukemia) was 29.4 µM and the GI50 (NCI-H226 lung) was 16.9 µM. It also gave a TGI (NCI-H226 lung) of 42.5 µM, a GI50 (NCI-H23 lung) of 11.4 µM and a TGI (NCI-H23 lung) of 29.8 µM. For the same compound, the GI50 (NCI-H460 lung) was 2.78 µM, the TGI (NCI-H460 lung) was 7.81 µM and the GI50 (NCI-H522 lung) was 1.87 µM. For the same compound, the TGI (NCI-H522 lung) was 3.7 µM, the GI50 (NCI/ADR-RES ovarian) was 7.02 µM and the TGI (NCI/ADR-RES ovarian) was 59.2 µM. The GI50 (OVCAR-3 ovarian) was 9.62 µM, the TGI (OVCAR-3 ovarian) was 23.3 µM and the GI50 (OVCAR-4 ovarian) was 10.6 µM. It also gave a TGI (OVCAR-4 ovarian) of 26 µM, a GI50 (OVCAR-5 ovarian) of 13 µM and a TGI (OVCAR-5 ovarian) of 26.5 µM. It also gave a GI50 (OVCAR-8 ovarian) of 11.5 µM, a TGI (OVCAR-8 ovarian) of 43.8 µM and a GI50 (PC-3 prostate) of 6.02 µM. For the same compound, the TGI (PC-3 prostate) was 20.6 µM, the GI50 (RPMI-8226 leukemia) was 3.02 µM and the TGI (RPMI-8226 leukemia) was 12.6 µM. It also gave a GI50 (RXF 393 renal) of 10.7 µM, a TGI (RXF 393 renal) of 23.9 µM and a GI50 (SF-268 CNS) of 7.55 µM. The TGI (SF-268 CNS) was 22.9 µM, the GI50 (SF-295 CNS) was 3.49 µM and the TGI (SF-295 CNS) was 13.7 µM. It also gave a GI50 (SF-539 CNS) of 2.97 µM, a TGI (SF-539 CNS) of 10.4 µM and a GI50 (SK-MEL-2 melanoma) of 14.9 µM. For the same compound, the TGI (SK-MEL-2 melanoma) was 29.4 µM, the GI50 (SK-MEL-28 melanoma) was 12.4 µM and the TGI (SK-MEL-28 melanoma) was 26.2 µM. The GI50 (SK-MEL-5 melanoma) was 2.05 µM, the TGI (SK-MEL-5 melanoma) was 4.71 µM and the GI50 (SK-OV-3 ovarian) was 16.5 µM. For the same compound, the TGI (SK-OV-3 ovarian) was 30.6 µM, the GI50 (SN12C renal) was 17.4 µM and the TGI (SN12C renal) was 42.3 µM. The GI50 (SNB-19 CNS) was 8.86 µM, the TGI (SNB-19 CNS) was 21.6 µM and the GI50 (SNB-75 CNS) was 2.8 µM. It also gave a TGI (SNB-75 CNS) of 15.6 µM, a GI50 (SW-620 colon) of 11.7 µM and a TGI (SW-620 colon) of 27.8 µM. The GI50 (T-47D breast) was 2.95 µM, the TGI (T-47D breast) was 12.5 µM and the GI50 (TK-10 renal) was 20.7 µM. The TGI (TK-10 renal) was 35.2 µM, the GI50 (U251 CNS) was 12 µM and the TGI (U251 CNS) was 25.8 µM. It also gave a GI50 (UACC-257 melanoma) of 15.2 µM, a TGI (UACC-257 melanoma) of 29.2 µM and a GI50 (UACC-62 melanoma) of 2.49 µM. The TGI (UACC-62 melanoma) was 6.73 µM, the GI50 (UO-31 renal) was 5.26 µM and the TGI (UO-31 renal) was 19.6 µM.
